Test results as given in ChEMBL document CHEMBL1141932 (J Med Chem, 2005).

Tests used:
RPMI-8226 = test: Cytotoxic activity against RPMI 8226 cells; format: functional, cell-based; details: Homo sapiens
Oryctolagus cuniculus [1] = species on record: Oryctolagus cuniculus; test: Inhibition of caspase-like (CA-L) activity of rabbit 20S proteasome; format: functional
HEK293 = test: Inhibition of NF-kB activation in HEK293 cells; format: functional, cell-based; details: Homo sapiens
Oryctolagus cuniculus [2] = species on record: Oryctolagus cuniculus; test: Inhibition of trypsin-like (T-L) activity of rabbit 20S proteasome; format: functional
Oryctolagus cuniculus [3] = species on record: Oryctolagus cuniculus; test: Inhibition of chymotrypsin-like (CT-L) activity of rabbit 20S proteasome; format: functional

| Compound | IC50 (RPMI-8226) | IC50 (Oryctolagus cuniculus [1]) | IC50 (HEK293) | IC50 (Oryctolagus cuniculus [2]) | IC50 (Oryctolagus cuniculus [3]) |
| --- | --- | --- | --- | --- | --- |
| CC[C@@]12OC(=O)[C@]1([C@@H](O)[C@@H]1C=CCCC1)NC(=O)[C@@H]2CCCl | 1900 nM | > 20000 nM | 3600 nM | 3300 nM | 2100 nM |
| C[C@@]12OC(=O)[C@]1([C@@H](O)[C@@H]1C=CCCC1)NC(=O)[C@@H]2CCN=[N+]=[N-] | 5500 nM | 560 nM | 1000 nM | 210 nM | 7.7 nM |
| CCC[C@H]1C(=O)N[C@@]2([C@@H](O)[C@@H]3C=CCCC3)C(=O)O[C@@]12C | 6300 nM | 1200 nM | 1900 nM | 1100 nM | 24 nM |
| C[C@@]12OC(=O)[C@]1([C@@H](O)C1CCCCC1)NC(=O)[C@@H]2CCCl | 52 nM | 1400 nM | 71 nM | 250 nM | 20 nM |
| C[C@@]12OC(=O)[C@]1([C@@H](O)[C@H]1CCC[C@H](Cl)[C@H]1O)NC(=O)[C@@H]2CCCl | > 20000 nM | > 20000 nM | > 20000 nM | > 20000 nM | 8200 nM |
| C[C@@]12OC(=O)[C@]1(C(=O)[C@@H]1C=CCCC1)NC(=O)[C@@H]2CCCl | > 20000 nM | > 20000 nM | > 20000 nM | 10000 nM | 8200 nM |
| C[C@@]12OC(=O)[C@]1([C@@H](O)[C@H]1CCC[C@H]3O[C@@H]13)NC(=O)[C@@H]2CCCl | 32 nM | 570 nM | 34 nM | 92 nM | 6.3 nM |
| C[C@@]12OC(=O)[C@]1(C(O)[C@@H]1C=CCCC1)NC(=O)[C@@H]2CCCl (some centres not stated) | > 20000 nM | > 20000 nM | > 20000 nM | > 20000 nM | > 20000 nM |
| C[C@H]1C(=O)N[C@@]2([C@@H](O)[C@@H]3C=CCCC3)C(=O)O[C@@]12C | 8500 nM | 1200 nM | 850 nM | 340 nM | 7.7 nM |
| C[C@@]12OC(=O)[C@]1([C@@H](O)[C@@H]1C=CCCC1)NC(=O)C2CCCl (single isomer, unassigned) | 1900 nM | > 20000 nM | 3800 nM | 2500 nM | 330 nM |
| C[C@@]12OC(=O)[C@]1(C(O)[C@H]1CCC[C@@H]3OC13)NC(=O)[C@@H]2CCCl (single isomer, unassigned) | 320 nM | 3200 nM | 300 nM | 770 nM | 91 nM |
| C[C@@]12OC(=O)C1([C@@H](O)[C@@H]1C=CCCC1)NC(=O)[C@@H]2CCO (single isomer, unassigned) [hydroxysalinosporamide A] | > 20000 nM | 2500 nM | 2600 nM | 800 nM | 8 nM |
| C[C@@]12OC(=O)[C@]1([C@@H](O)[C@@H]1C=CCCC1)NC(=O)[C@@H]2CCBr [BROMOSALINOSPORAMIDE] | 7.4 nM | 290 nM | 14 nM | 14 nM | 2.6 nM |
| C[C@@]12OC(=O)[C@]1([C@@H](O)[C@@H]1C=CCCC1)NC(=O)[C@@H]2CCI [IODOSALINOSPORAMIDE] | 6.8 nM | 410 nM | 10 nM | 13 nM | 2.8 nM |
| C[C@@]12OC(=O)[C@]1([C@@H](O)[C@@H]1C=CCCC1)NC(=O)[C@@H]2CCCl [MARIZOMIB] | 8.2 nM | 430 nM | 11 nM | – | 2.6 nM |
| CC(C)[C@H](O)[C@@]12NC(=O)[C@H](C)[C@@H]1OC2=O [OMURALIDE] | 3300 nM | > 10000 nM | 1600 nM | 540 nM | 57 nM |
| CC[C@H]1C(=O)N[C@@]2([C@@H](O)[C@@H]3C=CCCC3)C(=O)O[C@@]12C [SALINOSPORAMIDE B] | – | – | 1600 nM | 640 nM | 27 nM |
